According to patent US6509373B1, “Strain of streptomyces, and relevant uses thereof” (Development Center for Biotechnology, priority 1998, dated 2003):
Converted amounts (≈) assume the structure as drawn.

Tests used:
Assay in all cases: Antifungal activity of isolated borrelidin in vitro
P. ultimum = assay type: cell-based, Pythium ultimum; details: Globisporangium ultimum
Method: (§1) 1. The antifungal activity of the isolated borrelidin was tested against P. aphanidermatum, P. splendens, P. sylvaticum, P. capsici and Phytophthora ultimum in vitro.
(§2) 2. The isolated borrelidin was dissolved in methanol. Pasteurized, molten PDA (50 ml) was allowed to cool to 50° C. and mixed with 0.1 ml of borrelidin in methanol. Each fungal strain was tested at a specific concentration (max. 0.2 mg/l), or diluted concentration. A series of five concentrations was used to determine EC50 (the concentration at which 50% fungal growth is inhibited).
(§3) 3. PDA medium (50 ml) was mixed with 0.1 ml of borrelidin in methanol.
(§4) 4. The pathogenic fungi (2 mm mass) were inoculated. A microtitration plate added with methanol was used as control. The inhibition (%) was calculated when the control was fully covered with fungal mass, and EC50 was determined.

P. sylvaticum = assay type: cell-based, Pythium sylvaticum; details: Globisporangium sylvaticum
Method: as §1, §2, §3, §4

P. splendens = assay type: cell-based, Pythium splendens; details: Globisporangium splendens
Method: as §1, §2, §3, §4

P. capsici = assay type: cell-based; details: Phytophthora capsici
Method: as §1, §2, §3, §4

P. aphanidermatum = assay type: cell-based; details: Pythium aphanidermatum
Method: as §1, §2, §3, §4

[1] = 0.025 mg/l in PDA, read-out: Growth Inhibition (%)
[2] = 0.05 mg/l in PDA, read-out: Growth Inhibition (%)
[3] = 0.2 mg/l in PDA, read-out: Growth Inhibition (%)
[4] = concentration at which 50% fungal growth is inhibited

With `CC1CC(C)CC(C)C(O)/C(C#N)=C\C=C\CC(C2CCCC2C(=O)O)OC(=O)CC(O)C(C)C1` (centres unmarked) [borrelidin, 2-[7-cyano-8,16-dihydro-9,11,13,15-tetramethyl-18-oxooxacyclooctadeca-4,6(E, Z)-diene-2-yl]cyclopentacarboxylic acid] as the molecule, how does the inhibition at 0.025 µg/mL (P. ultimum; [1]) read?
The inhibition at 0.025 µg/mL was 0%.

And the inhibition at 0.05 µg/mL (P. ultimum; [2])?
The inhibition at 0.05 µg/mL was 17%.

And the inhibition at 0.2 µg/mL (P. ultimum; [3])?
Its inhibition at 0.2 µg/mL is 83%.

And the EC50 (P. ultimum; [4])?
Its EC50 is 0.1 µg/mL (≈ 0.204 µM).

What about the inhibition at 0.025 µg/mL (P. sylvaticum; [1]) of the same molecule?
Its inhibition at 0.025 µg/mL is 80%.

And the inhibition at 0.05 µg/mL (P. sylvaticum; [2])?
The inhibition at 0.05 µg/mL was 99%.

What about the inhibition at 0.2 µg/mL (P. sylvaticum; [3]) of the same molecule?
Its inhibition at 0.2 µg/mL is 100%.

What about the EC50 (P. sylvaticum; [4]) of the same molecule?
The EC50 was 0.01 µg/mL (≈ 0.0204 µM).

And the inhibition at 0.025 µg/mL (P. splendens; [1])?
Its inhibition at 0.025 µg/mL is 36%.

And the inhibition at 0.05 µg/mL (P. splendens; [2])?
Its inhibition at 0.05 µg/mL is 70%.

And the inhibition at 0.2 µg/mL (P. splendens; [3])?
Its inhibition at 0.2 µg/mL is 99%.

What about the EC50 (P. splendens; [4]) of the same molecule?
Its EC50 is 0.03 µg/mL (≈ 0.0613 µM).

What about the inhibition at 0.025 µg/mL (P. capsici; [1]) of the same molecule?
Its inhibition at 0.025 µg/mL is 41%.

What about the inhibition at 0.05 µg/mL (P. capsici; [2]) of the same molecule?
Its inhibition at 0.05 µg/mL is 70%.

What about the inhibition at 0.2 µg/mL (P. capsici; [3]) of the same molecule?
The inhibition at 0.2 µg/mL was 92%.

What about the EC50 (P. capsici; [4]) of the same molecule?
Its EC50 is 0.027 µg/mL (≈ 0.0551 µM).

What about the inhibition at 0.025 µg/mL (P. aphanidermatum; [1]) of the same molecule?
The inhibition at 0.025 µg/mL was 14%.

And the inhibition at 0.05 µg/mL (P. aphanidermatum; [2])?
The inhibition at 0.05 µg/mL was 45%.

What about the inhibition at 0.2 µg/mL (P. aphanidermatum; [3]) of the same molecule?
Its inhibition at 0.2 µg/mL is 99%.

What about the EC50 (P. aphanidermatum; [4]) of the same molecule?
Its EC50 is 0.06 µg/mL (≈ 0.123 µM).
